Consider three compounds from publication PMC7235904, “Is Blood a Good Indicator for Detecting Antimicrobials in Meat? Evidence for the Development of In Vivo Surveillance Methods” (Antibiotics, 2020).

Series [1] can be described thus: Antimicrobial residue concentration and depletion in blood (serum) of treated pigs within the withdrawal period (LC-MS/MS). It counts as in vivo. The following applies: for half-life: both sexes, intramuscular, T1/2=Ln(2)/λz, read-out: T1/2 half-life of elimination (BLOOD) (converted); for half-life / Slope (BLOOD): pig blood serum; for Maximum concentration value in Blood / Minimum concentration value in Blood: over the sample bank of treated piglets; for Slope (BLOOD): regression of concentration over the withdrawal period, deep intramuscular treatment; for Time until levels reached the detection limit (DL) in blood: DL 10 µg/kg. An excerpt:
To obtain samples containing antimicrobial compounds administered in vivo, 93 piglets (62 female, 31 male) with an average weight of 43.00 ± 12.79 kg were provided at treatment onset. These piglets were untreated animals that remained on the premises of the Faculty of Veterinary Sciences at the University of Zaragoza (Zaragoza, Spain) 40 days before administration of the compounds. Both during the acclimatization and withdrawal periods, animals were fed ad libitum with a special mixed feed that was free of antibiotics ([…], Spain), and water was provided from a separated, controlled water circuit. Piglets were raised in separate pens depending on the antibiotic administrated. After administration, animals were slaughtered at preset intervals within the withdrawal period in order to obtain samples containing different antimicrobial concentrations above and below the MRLs for muscle. Figure S1 indicates the slaughter days and the withdrawal periods set by the manufacturer for each antimicrobial compound administered. Between one and three piglets were slaughtered on the same day post-administration. The day of slaughter was calculated from the first day after the last antimicrobial treatment dose. […] Apart from samples containing antimicrobial compounds administered in vivo, and as a part of the sample bank, 15 of the 93 piglets were slaughtered after the acclimatization period and before treatment onset. Animals were stunned and slaughtered following the guidelines established by European Council Regulation (EC) No. 1099/2009 [39] regarding the protection of animals at the time of slaughter or killing. A penetrative captive bolt gun was used to stun the pigs, positioning it firmly against the skin, in the middle of the forehead, 2 cm above the line of the eyes, aiming towards the tail. This was followed by complete exsanguination carried out by incision in the jugular furrow at the base of the neck to sever all the major blood vessels arising from the heart. The samples obtained from them were used as blank samples for analysis. Blood was collected not only from slaughtered animals, but also from living animals on each day of slaughter. […] For quinolones in blood serum samples, a LC-MS/MS method was set up using a SCIEX Exion LC coupled to TripleQuad 6500+ triple quadrupole detector equipped with an Acquity Ultra Performance Liquid Chromatography Ethylene Bridged Hybrid (UPLC BEH) C18 (1.7 μm, 2.1 × 100 mm) column. Mobile phase consisted of eluent A: 0.1% formic acid in water, and eluent B: 0.1% formic acid in acetonitrile at a flow rate of 0.4 mL/min. […] Injected volume was 5 μL. Analytes were detected using positive electrospray ionization (ESI+) in multiple reaction monitoring (MRM) mode, and two transitions were monitored for each compound of interest (Table S4). […] The same mobile phase and gradient conditions as in SCIEX instruments were applied. […] Two ESI+ MRM transitions were monitored for each compound (Table S5). […] Results were represented as the mean ± standard deviation using the PRISM program (GraphPad Software, Inc., San Diego, USA). The rates of elimination (λz) of antibiotics from muscle and blood were determined by regression analysis. The corresponding half-lives of elimination were calculated according to the following equation: Half-life of elimination.

Series [2] in a line: Antimicrobial residue concentration and depletion in muscle of treated pigs within the withdrawal period (LC-MS/MS or HPLC-FLD). It counts as in vivo. The following applies: for half-life: both sexes, T1/2=Ln(2)/λz, read-out: T1/2 half-life of elimination (MUSCLE) (converted); for half-life / concentration at 2 day of withdrawal period / concentration at 3 day of withdrawal period / concentration at 4 day of withdrawal period / concentration at 7 day of withdrawal period / concentration at 15 day of withdrawal period: intramuscular; for concentration at 2 day of withdrawal period: withdrawal period Day 2, pig; for concentration at 3 day of withdrawal period: withdrawal period Day 3, pig; for Maximum concentration value in Muscle / Minimum concentration value in Muscle: over the sample bank of treated piglets; for Time until levels reached the detection limit (DL) in muscle: DL 10 µg/kg; for Slope (MUSCLE): regression of concentration over the withdrawal period, deep intramuscular treatment; for concentration at 4 day of withdrawal period: withdrawal period Day 4, pig; for concentration at 7 day of withdrawal period: withdrawal period Day 7, pig; for concentration at 15 day of withdrawal period: withdrawal period Day 15, pig. An excerpt: To obtain samples containing antimicrobial compounds administered in vivo, 93 piglets (62 female, 31 male) with an average weight of 43.00 ± 12.79 kg were provided at treatment onset. These piglets were untreated animals that remained on the premises of the Faculty of Veterinary Sciences at the University of Zaragoza (Zaragoza, Spain) 40 days before administration of the compounds. Both during the acclimatization and withdrawal periods, animals were fed ad libitum with a special mixed feed that was free of antibiotics ([…], Spain), and water was provided from a separated, controlled water circuit. Piglets were raised in separate pens depending on the antibiotic administrated. After administration, animals were slaughtered at preset intervals within the withdrawal period in order to obtain samples containing different antimicrobial concentrations above and below the MRLs for muscle. Figure S1 indicates the slaughter days and the withdrawal periods set by the manufacturer for each antimicrobial compound administered. Between one and three piglets were slaughtered on the same day post-administration. The day of slaughter was calculated from the first day after the last antimicrobial treatment dose. […] Apart from samples containing antimicrobial compounds administered in vivo, and as a part of the sample bank, 15 of the 93 piglets were slaughtered after the acclimatization period and before treatment onset. Animals were stunned and slaughtered following the guidelines established by European Council Regulation (EC) No. 1099/2009 [39] regarding the protection of animals at the time of slaughter or killing. A penetrative captive bolt gun was used to stun the pigs, positioning it firmly against the skin, in the middle of the forehead, 2 cm above the line of the eyes, aiming towards the tail. This was followed by complete exsanguination carried out by incision in the jugular furrow at the base of the neck to sever all the major blood vessels arising from the heart. The samples obtained from them were used as blank samples for analysis. […] Samples were immediately frozen at -20 °C until analysis. For HPLC-FLD analyses, matrix solid phase dispersion (MSPD) was used. A total of 1.00 ± 0.01 g of tissue was weighed. Internal quality control samples were spiked at this point. […] It was introduced into a 25 mL reservoir and compacted. Clean-up was made with 8 mL of hexane, and quinolones were eluted with 15 mL acetonitrile/methanol (1:1) acidified with acetic acid 1%. […] The extraction procedure for LC-MS/MS determination was based on Chico et al.. […] All samples were spiked with IS at this point, and calibrants and internal quality control samples were prepared by spiking the corresponding amount of standard working solution. A total of 200 μL of 0.1 M EDTA was added, followed by 10 mL of 70% methanol, and samples were vortexed for 30 s, swung for 15 min, and finally centrifuged at 4500 rcf for 10 min at a temperature below 10 °C (Heraeus Multifuge X3 FR, Heraeus, Hanau, Germany). Then, 500 μL of supernatant was collected and diluted by adding 1500 μL of water. Extracts were filtered through 0.2 μm pore filters directly into LC-MS/MS vials. […] Mobile phase consisted of eluent A: phosphoric acid with trimethylamine buffer (pH = 3), and eluent B: acetonitrile, in isocratic mode (21:79) with a flow rate of 1 mL/min. Injected volume was 50 μL. […] The same mobile phase and gradient conditions as in SCIEX instruments were applied. Injected volume was 10 μL. Two ESI+ MRM transitions were monitored for each compound (Table S5). […] Results were represented as the mean ± standard deviation using the PRISM program (GraphPad Software, Inc., San Diego, USA). The rates of elimination (λz) of antibiotics from muscle and blood were determined by regression analysis. […]

Details of series [3]: method as in earlier work. The following applies: cited from earlier work.
The conditions of series [4]: cited from earlier work; for Suppression Period (withdrawal period set by the manufacturer): commercial product, deep intramuscular, ref manufacturer; for MRLs: muscle, ref Regulation (EEC) No. 2377/90.
[5] abbreviates: forequarter muscle, read-out: Concentration in Forequarters.
The mark [6] stands for this setting: hindquarter muscle, read-out: Concentration in Hindquarters.
The mark [7] stands for this setting: loin muscle, read-out: Concentration in Loins.

The structures appear in SMILES notation. Like-named read-outs stand apart in the source and are kept apart here. Marks after values point to notes of the source that are not given here.

For the compound `CCN1CCN(c2cc3c(cc2F)c(=O)c(C(=O)O)cn3C2CC2)CC1` [Enrofloxacin, enrofloxacin], in series [1], the half-life is 45.6 h, the “Maximum concentration value in Blood” value was found to be 448.50 ± 2.12 µg/kg, the “Minimum concentration value in Blood” value came out at 21.67 ± 1.15 µg/kg and the “Slope (BLOOD)” value is given as −0.2213 ± 0.01639 ^b. Moreover, the “Time until levels reached the detection limit (DL) in blood” value in series [1] (pig blood) is reported as 8 days after inoculation. Also, in series [2] (pig muscle), the half-life is 22.1 h, the “Time until levels reached the detection limit (DL) in muscle” value is listed as 7 days after inoculation and the “Slope (MUSCLE)” value is listed as −0.3289 ± 0.01929 ^a. Also, in series [2] (setting [5]), the concentration at 2 day of withdrawal period worked out at 374 ± 4.73 ng/g and the concentration at 3 day of withdrawal period stood at 990.5 ± 3.54 ng/g. In addition, in series [2] (setting [6]), the concentration at 2 day of withdrawal period came out at 387 ± 8.5 ng/g and the concentration at 3 day of withdrawal period stood at 1075 ± 1.41 ng/g. Moreover, in series [2] (setting [7]), the concentration at 2 day of withdrawal period worked out at 383 ± 2 ng/g and the concentration at 3 day of withdrawal period worked out at 1060 ± 2.12 ng/g. Further, in series [2], the “Maximum concentration value in Muscle” value came out at 1858.00 ± 156.37 µg/kg and the “Minimum concentration value in Muscle” value is 18.00 ± 2.65 µg/kg.
For the compound `CN(C)[C@@H]1C(O)=C(C(N)=O)C(=O)[C@@]2(O)C(O)=C3C(=O)c4c(O)cccc4[C@@](C)(O)[C@H]3[C@H](O)[C@@H]12` [Oxytetracycline, oxytetracycline], in series [3], the “Share of the dose eliminated in the feces” value is 40% and the “Share of the dose eliminated in urine via glomerular filtration” value is on record as 60%. In series [1], the half-life is 86.2 h, the “Maximum concentration value in Blood” value is 615.00 ± 204.47 µg/kg, the “Minimum concentration value in Blood” value turned out to be 24.00 ± 1.73 µg/kg and the “Slope (BLOOD)” value is −0.08879 ± 0.007069 ^a. For the same compound, the “Time until levels reached the detection limit (DL) in blood” value in series [1] (pig blood) is on record as 25 days after inoculation. Moreover, in series [4], the “Suppression Period (withdrawal period set by the manufacturer)” value was 28 days and the MRLs is 100 µg/kg. Further, in series [2] (pig muscle), the half-life is 82.3 h, the “Time until levels reached the detection limit (DL) in muscle” value came to 26 days after inoculation and the “Slope (MUSCLE)” value is −0.08784 ± 0.005403 ^a. In series [2] (setting [5]), the concentration at 4 day of withdrawal period came out at 971 ± 53.3 ng/g, the concentration at 7 day of withdrawal period stood at 411 ± 27.5 ng/g and the concentration at 15 day of withdrawal period worked out at 99.7 ± 6.51 ng/g. Also, in series [2] (setting [6]), the concentration at 4 day of withdrawal period stood at 1010 ± 55.5 ng/g, the concentration at 7 day of withdrawal period was 383 ± 45.9 ng/g and the concentration at 15 day of withdrawal period came to 100 ± 16 ng/g. For the same compound, in series [2] (setting [7]), the concentration at 4 day of withdrawal period was found to be 905 ± 118 ng/g, the concentration at 7 day of withdrawal period was determined as 383 ± 12.9 ng/g and the concentration at 15 day of withdrawal period was 125 ± 15.7 ng/g. In addition, in series [2], the “Maximum concentration value in Muscle” value turned out to be 1005.33 ± 55.47 µg/kg and the “Minimum concentration value in Muscle” value was 31.33 ± 3.21 µg/kg.
With `CC1(C)S[C@@H]2[C@H](NC(=O)[C@H](N)c3ccc(O)cc3)C(=O)N2[C@H]1C(=O)O` [Amoxicillin, amoxicillin], in series [1], the “Maximum concentration value in Blood” value came to 73.00 ± 6.24 µg/kg and the “Minimum concentration value in Blood” value stood at 19.00 ± 1.00 µg/kg. In addition, the “Time at which blood amounts were close to the MRL” value in series [1] (pig blood, MRL 50 µg/kg) is listed as “first day of the withdrawal period”. Further, in series [4], the “Suppression Period (withdrawal period set by the manufacturer)” value was 25 days and the MRLs was 50 µg/kg. In addition, the concentration at 2 day of withdrawal period in series [2] (setting [5]) was determined as 20.7 ± 1.15 ng/g. For the same compound, the concentration at 2 day of withdrawal period in series [2] (setting [6]) was 25.3 ± 6.43 ng/g. In addition, the concentration at 2 day of withdrawal period in series [2] (setting [7]) was found to be 149 ± 8.54 ng/g. Also, in series [2], the “Maximum concentration value in Muscle” value is 307.00 ± 10.39 µg/kg and the “Minimum concentration value in Muscle” value is reported as 13.33 ± 2.52 µg/kg. Further, in series [2] (pig muscle groups, Table S1), the “Concentration in loins compared with forequarters and hindquarters” value is “over seven times higher”. Further, the “Time at which muscle amounts were close to the MRL” value in series [2] (pig muscle, MRL 50 µg/kg) is “first day of the withdrawal period”.
